Here are results for three molecules from PMC6264682, “Synthesis and Adrenolytic Activity of New Propanolamines” (Molecules, 2010).

Assay [1] has as its system anesthetized male Wistar rats. In words: Effect on normal electrocardiogram (ECG) in vivo in rats. The arrangement: species or system rat. The following applies: 1 mg∙kg^-1 iv, mean ± SEM. Here is the method: The effects on ECG intervals and heart rate were determined for all tested compounds at the same dose of 1 mg∙kg^-1.
Electrocardiographic measurement was carried out using the Ascard B5 Eco apparatus, standard lead II, and paper speed of 50 mm∙s^-1. The tested compounds were administered intravenously in a dose of 1 mg∙kg^-1. The ECG recording was carried out immediately before and 1, 5 and 15 min after administration of the tested compounds. The effect of the compounds on rat ECG recording was calculated according to Cambridge et al..

In a further assay the target is α1-adrenoceptors. In words: Radioligand binding assay, displacement of [3H]Prazosin, rat cerebral cortex. Particulars: for Ki: rat cerebral cortex, [3H]Prazosin 0.2 nM, ± SEM. Here is the method: (§1) The experiment was carried out on rat cerebral cortex. […] The brains were homogenised in 20 vol of an ice-cold 50 mM Tris–HCl buffer (pH 7.6), and were centrifuged at 20.000 × g for 20 min (0–4 °C). The cell pellet was resuspended in the Tris–HCl buffer and centrifuged again. Radioligand binding assays were performed in plates (MultiScreen/Millipore). The final incubation mixture (final volume 300 μL) consisted of 240 μL of the membrane suspension, 30 μL of [^3H]Prazosin (0.2 nM), [^3H]Clonidine (2 nM) or [^3H]CGP12177 (0.2 nM) solution, and 30 μL of the buffer containing seven to eight concentrations (10^–11–10^–4 M) of the tested compounds. […] The incubation was terminated by rapid filtration over glass fibre filters (Whatman GF/C) using a vacuum manifold (Millipore). The filters were then washed twice with the assay buffer and placed in scintillation vials with a liquid scintillation cocktail. Radioactivity was measured in a WALLAC 1409 DSA liquid scintillation counter. All the assays were made in duplicate. The radioligand binding data were analyzed using an iterative curve-fitting routine (GraphPAD/Prism, Version 3.0, San Diego, CA, USA). Ki values were calculated from the Cheng and Prusoff equation [25].

Assay [2] concerns adrenaline-induced arrhythmia. As to the kind of experiment: Prophylactic antiarrhythmic activity, adrenaline-induced arrhythmia in anesthetized rats. The following applies: limits in brackets; for ED50 iv (dose producing 50% inhibition of premature ventricular beats): iv 15 min before adrenaline 20 μg∙kg^-1 iv; for ED50 po (dose producing 50% inhibition of premature ventricular beats): orally (intragastric) 60 min before adrenaline 20 μg∙kg^-1 iv. It is filed as in vivo, rat. How it is done: The prophylactic antiarrhythmic activity of compounds 10 and 11 was determined using an adrenaline-induced arrhythmia model of in anesthetized rats.
Arrhythmia was evoked in thiopental (60 mg kg^-1, ip) – anaesthetized rats by iv injection of adrenaline (20 μg kg^-1). The tested compounds were administered intravenously 15 min or orally 60 min before adrenaline. […] The cardiac rhythm disturbances were recorded for 15 min after adrenaline injection. ECGs were analyzed according to the guidelines of the Lambeth Convention on ventricular premature beats (VBs), bigeminy, salvos (less than four successive VBs), ventricular tachycardia (VT, four or more successive VBs), and ventricular fibrillation (VF).

The target in another assay is α2-adrenoceptors. As to the kind of experiment: Radioligand binding assay, displacement of [3H]Clonidine, rat cerebral cortex. Particulars: [3H]Clonidine 2 nM, ± SEM. Here is the method:
as §1

In assay [3] the test system is normotensive anesthetized rats. In words: Influence on blood pressure in normotensive anesthetized rats. It is filed as in vivo, rat. Here is the method: Hypotensive activity of compounds 10 and 11 was determined after iv and po administration to normotensive anesthetized rats.
Male Wistar normotensive rats were anesthetized with thiopental (50–75 mg kg^-1, ip). The right carotid artery was cannulated with a polyethylene tube, filled with heparin in saline to facilitate pressure measurement using the Datamax apparatus (Columbus Instruments). […]

For assay [4], the system named is isolated rabbit small intestine. As to the kind of experiment: Influence on spontaneous contractions of isolated rabbit ileum. The following applies: for Amplitude of contractions / Frequency of contractions: mean ± SEM. How it is done: The influence on isolated rabbit ileum of the investigated compounds on the smooth muscle was investigated on the rabbit small intestine, according to the Magnus’ method modified and described by Orisadipe et al. The white rabbits were sacrificed by cervical dislocation and the small intestine was immediately removed, and cut into strips about 3–4 cm long. The isolated strips were incubated in Krebs solution at 37 °C and aerated with carbogen in special laboratory dishes. The isolated strip of the intestine was placed in a test glass tube with the Krebs solution constantly aerated by carbogen. After 1 hour incubation period, during which the physiological saline solution was changed every 15 min, the influence of the investigated compounds on spontaneous contractions of the rabbit ileum was evaluated. The contraction of the intestine was recorded on a TZ-4100 line recorder via isometric Harvard transducer, at the muscle load of 1 g. The influence of every single dose was recorded for 5 min.

The mark [5] stands for this setting: time 0 min (immediately before administration, baseline).
The mark [6] stands for this setting: po, 2 mg∙kg^-1, from 40 to 90 min.
Setting [7] is: concentration 0 (control before 10^-5 M).
[8] abbreviates: concentration 0 (control before 10^-6 M).
The mark [9] stands for this setting: concentration 0 (control before 10^-7 M).
The mark [10] stands for this setting: concentration 0 (control before 10^-8 M).
Setting [11] is: concentration 0 (control before 10^-9 M).

Structures are written as SMILES. “And” between values parts separate entries of the source, which are not always exact repeats. Equal entries are not always repeated. Marks after values point to notes of the source that are not given here.

Take `COc1ccccc1OCCNCC(O)COc1cccc2[nH]ccc12` (racemic) [(R,S)-9, (2R,S)-1-(1H-indol-4-yloxy)-3-(2-(2-methoxyphenoxy)ethylamino)propan-2-ol, reference compound]: in assay [1] (1 min after administration), the “P–Q” value came to […], the QRS came out at […], the “Q–T” value is […] and the heart rate was found to be […]. Further, in assay [1] (5 min after administration), the QRS was […], the “Q–T” value was determined as […] and the heart rate is recorded as […]. In assay [1] (15 min after administration), the “P–Q” value stood at […], the QRS is listed as […], the “Q–T” value worked out at […] and the heart rate was […]. In assay [1] (setting [5]), the “P–Q” value worked out at […], the QRS is on record as […], the “Q–T” value was determined as […] and the heart rate is reported as […]. Further, the affinity on α1-adrenoceptors corresponds to a Ki of […]. For the same molecule, in assay [2], the “ED50 iv (dose producing 50% inhibition of premature ventricular beats)” value is recorded as […] and the “ED50 po (dose producing 50% inhibition of premature ventricular beats)” value is […]. The molecule also registered a Ki on α2-adrenoceptors of 1400 ± 400 nM.
On to `COCc1cc2[nH]ccc2c(OC)c1OCC(O)CNCCOc1ccccc1OC` [Compound 10, (2R,S)-1-(4-Methoxy-6-(methoxymethyl)-1H-indol-5-yloxy)-3-(2-(2-methoxyphenoxy)ethylamino)propan-2-ol], for which the “P–Q” value is listed as 45.6 ± 1.6^b ms in assay [1] (1 min after administration), 46.8 ± 1.6^c ms in assay [1] (5 min after administration), 46.4 ± 1.6^c ms in assay [1] (15 min after administration) and 40.4 ± 0.4 ms in assay [1] (setting [5]). In addition, the QRS in assay [1] (1 min after administration) was 31.2 ± 0.5^c ms; in assay [1] (5 min after administration), 31.2 ± 1.0^c ms; in assay [1] (15 min after administration), 32.4 ± 0.8^d ms; in assay [1] (setting [5]), 27.6 ± 0.8 ms. For the same molecule, the “Q–T” value is 92.0 ± 4.2 ms in assay [1] (1 min after administration), 100.0 ± 2.8 ms in assay [1] (5 min after administration), 104.0 ± 1.4^a ms in assay [1] (15 min after administration) and 94.4 ± 2.8 ms in assay [1] (setting [5]). In addition, the heart rate in assay [1] (1 min after administration) was determined as 334.0 ± 13.0 Beats/min; in assay [1] (5 min after administration), 309.6 ± 13.7 Beats/min; in assay [1] (15 min after administration) it was 297.4 ± 12.4 Beats/min; in assay [1] (setting [5]), 329.4 ± 12.2 Beats/min. For the same molecule, the “selectivity towards α1-adrenergic receptors” value in the assay on α1-adrenoceptors (from Ki values of Table 1) was determined as 52 fold. In addition, the Ki was 5.9 ± 0.3 nM on α1-adrenoceptors and 307 ± 11.7 nM on α2-adrenoceptors. Further, the “ED50 iv (dose producing 50% inhibition of premature ventricular beats)” value in assay [2] was 0.35 (0.18–0.72) mg∙kg^-1. Also, the “ED50 po (dose producing 50% inhibition of premature ventricular beats)” value in assay [2] was 1.71 mg∙kg^-1 and 1.71 (1.52 ± 1.93) mg∙kg^-1. Besides, the “time after administration in which diastolic blood pressure was decreased” value in assay [3] (iv, 0.25 mg·kg^-1) is reported as 10 min. The “time after administration in which systolic blood pressure was decreased” value in assay [3] (iv, 0.25 mg·kg^-1) is recorded as 20 min. Also, the “time over which diastolic blood pressure was significantly decreased” value in assay [3] (iv, 0.5 mg∙kg^-1) was ≤ 10 min. The “decrease of systolic blood pressure” value in assay [3] (iv, 0.5 mg∙kg^-1, throughout the whole observation period) is listed as 8–14%; in assay [3] (setting [6]), 9–18%. Further, the hypotensive activity result in assay [3] (po, 1 mg∙kg^-1) is “disappeared”. In addition, the “decrease of diastolic blood pressure” value in assay [3] (setting [6]) is on record as 11–23%. Further, in assay [4] (10^-5 M), the “increased frequency of contractions” value is on record as “about 8%”. The Amplitude of contractions in assay [4] (10^-5 M) is reported as 1.11 ± 0.09^c g; in assay [4] (10^-6 M), 1.10 ± 0.07^c g; in assay [4] (10^-7 M), 1.29 ± 0.05^a g; in assay [4] (10^-8 M) it was 1.31 ± 0.06^b g; in assay [4] (10^-9 M), 1.56 ± 0.06 g; in assay [4] (setting [7]), 1.72 ± 0.11 g. Further, the Amplitude of contractions in assay [4] (setting [8]) is on record as 1.63 ± 0.10 g; in assay [4] (setting [9]), 1.55 ± 0.10 g; in assay [4] (setting [10]) it was 1.53 ± 0.06 g; in assay [4] (setting [11]) it was 1.43 ± 0.06 g. Also, the Frequency of contractions in assay [4] (10^-5 M) was 10.70 ± 0.25^a min ^-1; in assay [4] (10^-6 M), 11.60 ± 0.22 min ^-1; in assay [4] (10^-7 M) it was 12.15 ± 0.15 min ^-1; in assay [4] (10^-8 M), 12.15 ± 0.18 min ^-1; in assay [4] (10^-9 M), 12.14 ± 0.22 min ^-1; in assay [4] (setting [7]) it was 11.61 ± 0.27 min ^-1. Further, the Frequency of contractions in assay [4] (setting [8]) turned out to be 12.24 ± 0.25 min ^-1; in assay [4] (setting [9]), 12.05 ± 0.19 min ^-1; in assay [4] (setting [10]), 11.77 ± 0.14 min ^-1; in assay [4] (setting [11]), 12.74 ± 0.20 min ^-1. The “diminished amplitude of contractions” value in assay [4] (range of concentrations 10^-8–10^-5 M) is listed as 14 to 35%.
Consider `COc1ccccc1OCCNCC(O)COc1cccc2[nH]c3ccccc3c12` (stereo not shown) [Carvedilol, reference compound], for which, in assay [1] (setting [5]), the heart rate is reported as 356.7 ± 21.0 Beats/min.
